Data on 30 molecules can be found in patent US20120108636A1, “Allosteric Enhancers of th A1 Adenosine Receptor” (King Pharmaceuticals Research and Development, Inc., priority 2008, published 2012).

By melting point is commonly meant the temperature of the solid-liquid transition. Regarding `Cc1ccc(-c2sc(N)c(C(=O)c3ccc(Cl)cc3)c2CN(C2CCCCC2)C2CCCCC2)cc1` [Example 18, {2-Amino-4-[(dicyclohexylamino)methyl]-5-(4-methylphenyl)thiophen-3-yl}(4-chlorophenyl)methanone], the melting point is 191 to 194 °C. Molecule `COCCN(CCOC)Cc1c(-c2ccccc2)sc(N)c1C(=O)c1ccc(Cl)cc1` [Example 16-8, {2-Amino-4-[(bis(2-methoxyethyl)amino)methyl]-5-phenylthiophen-3-yl}(4-chlorophenyl)methanone] yielded a melting point of 140 to 145 °C. The same measure for `Nc1sc(-c2cc(F)cc(F)c2)c(CN(C2CCCCC2)C2CCCCC2)c1C(=O)c1ccc(Cl)cc1` [Example 17, {2-Amino-4-[(dicyclohexylamino)methyl]-5-(3,5-difluorophenyl)thiophen-3-yl}(4-chlorophenyl)methanone]: 163 to 166 °C; for `CN(Cc1c(-c2ccccc2)sc(N)c1C(=O)c1ccc(Cl)cc1)c1ccc(Cl)c(Cl)c1` [Example 16-11, {2-Amino-4-[((3,4-dichlorophenyl)(methyl)amino)methyl]-5-phenylthiophen-3-yl}(4-chlorophenyl)methanone]: 80 to 84 °C.

The molecule `Nc1sc(-c2ccco2)c(CN(C2CCCCC2)C2CCCCC2)c1C(=O)c1ccc(Cl)cc1` [Example 31, {2-Amino-4-[(dicyclohexylamino)methyl]-5-(furan-2-yl)thiophen-3-yl}(4-chlorophenyl)methanone] yielded a melting point of 158 to 160 °C.

Take `Nc1sc(-c2ccccc2F)c(CN(C2CCCCC2)C2CCCCC2)c1C(=O)c1ccc(Cl)cc1` [Example 13, {2-Amino-4-[(dicyclohexylamino)methyl]-5-(2-fluorophenyl)thiophen-3-yl}(4-chlorophenyl)methanone]: the melting point lay in the range of 223 to 225 °C. The same measure for `Cc1ccc(N(C)Cc2c(-c3ccccc3)sc(N)c2C(=O)c2ccc(Cl)cc2)cc1` [Example 16-13, {2-Amino-4-[((4-methylphenyl)(methyl)amino)methyl]-5-phenylthiophen-3-yl}(4-chlorophenyl)methanone]: 173 to 176 °C; for `Nc1sc(/C=C/CC2CCCCC2)c(CN(C2CCCCC2)C2CCCCC2)c1C(=O)c1ccc(Cl)cc1` [Example 37, (E)-{2-Amino-5-(3-cyclohexylprop-1-enyl)-4-[(dicyclohexylamino)methyl]thiophen-3-yl}(4-chlorophenyl)methanone]: 147 to 150 °C; for `COC(=O)CN(C)Cc1c(-c2ccccc2)sc(N)c1C(=O)c1ccc(Cl)cc1` [Example 16-7]: 156.5 to 160 °C. Consider `CC(C)(C)c1ccc(-c2sc(N)c(C(=O)c3ccc(Cl)cc3)c2CN(C2CCCCC2)C2CCCCC2)cc1` [Example 11, {2-Amino-5-(4-t-butylphenyl)-4-[(dicyclohexylamino)methyl]thiophen-3-yl}(4-chlorophenyl)methanone], for which the melting point lay in the range of 180 to 184 °C. `Nc1sc(-c2cccnc2)c(CN(C2CCCCC2)C2CCCCC2)c1C(=O)c1ccc(Cl)cc1` [Example 35, {2-amino-4-[(dicyclohexylamino)methyl]-5-(pyridin-3-yl)thiophen-3-yl}(4-chlorophenyl)methanone] showed a melting point of 168 to 170 °C. As for `COc1ccc(-c2sc(N)c(C(=O)c3ccc(Cl)cc3)c2CN(C2CCCCC2)C2CCCCC2)cc1` [Example 19, {2-Amino-4-[(dicyclohexylamino)methyl]-5-(4-methoxyphenyl)thiophen-3-yl}(4-chlorophenyl)methanone], the melting point lay within 178 to 182 °C. As to `C=CCN(Cc1c(-c2ccccc2)sc(N)c1C(=O)c1ccc(Cl)cc1)C1CCCCC1` [Example 16-6], the melting point was 151 to 157 °C.

The molecule `Nc1sc(-c2ccccn2)c(CN(C2CCCCC2)C2CCCCC2)c1C(=O)c1ccc(Cl)cc1` [Example 34, {2-am ino-4-[(dicyclohexylamino)methyl]-5-(pyridin-2-yl)thiophen-3-yl}(4-chlorophenyl)methanone] displayed a melting point of 192 to 194 °C. `Nc1sc(-c2ccccc2)c(CN(C2CCCC2)C2CCCC2)c1C(=O)c1ccc(Cl)cc1` [Example 16-4, {2-Amino-4-[(dicyclopentylamino)methyl]-5-phenylthiophen-3-yl}(4-chlorophenyl)methanone] displayed a melting point of 135 to 141 °C.

In turn, `COCCOc1ccc(-c2sc(N)c(C(=O)c3ccc(Cl)cc3)c2CN(C2CCCCC2)C2CCCCC2)cc1` had a melting point of 162 to 164 °C. In turn, `Nc1sc(-c2ccccc2)c(CNC23CC4CC(CC(C4)C2)C3)c1C(=O)c1ccc(Cl)cc1` [Example 16-10, {2-Amino-4-[(1-adamantylamino)methyl]-5-phenylthiophen-3-yl}(4-chlorophenyl)methanone] had a melting point of 135 to 140 °C. Turning to `N#Cc1ccc(-c2sc(N)c(C(=O)c3ccc(Cl)cc3)c2CN(C2CCCCC2)C2CCCCC2)cc1` [Example 10, {2-Amino-5-(4-cyanophenyl)-4-[(dicyclohexylamino)methyl]thiophen-3-yl}(4-chlorophenyl)methanone], the melting point fell in the range of 196 to 200 °C. Consider `Nc1sc(-c2ccc(Cl)cc2)c(CN(C2CCCCC2)C2CCCCC2)c1C(=O)c1ccc(Cl)cc1` [Example 12, {2-Amino-5-(4-chlorophenyl)-4-[(dicyclohexylamino)methyl]thiophen-3-yl}(4-chlorophenyl)methanone], for which the melting point was 200 to 204 °C. Turning to `Nc1sc(-c2ccc(F)cc2)c(CN(C2CCCCC2)C2CCCCC2)c1C(=O)c1ccc(Cl)cc1` [Example 15, {2-Amino-4-[(dicyclohexylamino)methyl]-5-(4-fluorophenyl)thiophen-3-yl}(4-chlorophenyl)methanone], the melting point lay within 222 to 224 °C. The same measure for `CC(C)CN(Cc1c(-c2ccccc2)sc(N)c1C(=O)c1ccc(Cl)cc1)CC(C)C` [Example 16-2, {2-Amino-4-[(diisobutylamino)methyl]-5-phenylthiophen-3-yl}(4-chlorophenyl)methanone]: 127 to 133 °C; for `CC(C)Oc1ccc(-c2sc(N)c(C(=O)c3ccc(Cl)cc3)c2CN(C2CCCCC2)C2CCCCC2)cc1` [Example 16-15, {2-Amino-4-[(dicyclohexylamino)methyl]-5-(4-isopropoxyphenyl)thiophen-3-yl}(4-chlorophenyl)methanone]: 175 to 177 °C. The same measure for `Nc1sc(-c2cccc(F)c2)c(CN(C2CCCCC2)C2CCCCC2)c1C(=O)c1ccc(Cl)cc1` [Example 14, {2-Amino-4-[(dicyclohexylamino)methyl]-5-(3-fluorophenyl)thiophen-3-yl}(4-chlorophenyl)methanone]: 205 to 207 °C. `Nc1sc(-c2ccc(Cl)c(Cl)c2)c(CN(C2CCCCC2)C2CCCCC2)c1C(=O)c1ccc(Cl)cc1` [Example 16-14, {2-Amino-5-(3,4-dichlorophenyl)-4-[(dicyclohexylamino)methyl]thiophen-3-yl}(4-chlorophenyl)methanone]: the melting point lay in the range of 222 to 225 °C.

For the molecule `Nc1sc(-c2ccoc2)c(CN(C2CCCCC2)C2CCCCC2)c1C(=O)c1ccc(Cl)cc1` [Example 29, {2-Amino-[(dicyclohexylamino)methyl]-5-(furan-3-yl)thiophen-3-yl}(4-chlorophenyl)methanone], the melting point fell in the range of 132 to 135 °C. The same measure for `CCCN(Cc1c(-c2ccccc2)sc(N)c1C(=O)c1ccc(Cl)cc1)C1CCCCC1` [Example 16-5, {2-Amino-4-[(cyclohexyl(propyl)amino)methyl]-5-phenylthiophen-3-yl}(4-chlorophenyl)methanone]: 162 to 165 °C; for `Nc1sc(/C=C/Cc2ccc(Cl)cc2)c(CN(C2CCCCC2)C2CCCCC2)c1C(=O)c1ccc(Cl)cc1` [Example 38, (E)-{2-amino-5[3-(4-chlorophenyl)prop-1-enyl]-4-[(dicyclohexylamino)methyl]thiophen-3-yl}(4-chlorophenyl)methanone]: 143 to 146 °C.

Take `Nc1sc(-c2ccc(Cl)s2)c(CN(C2CCCCC2)C2CCCCC2)c1C(=O)c1ccc(Cl)cc1` [Example 32, {5-Amino-5′-chloro-3-[(dicyclohexylamino)methyl]-2,2′-bithiophen-4-yl}(4-chlorophenyl)methanone]: the melting point was 195 to 197 °C. The same measure for `Nc1sc(-c2ccncc2)c(CN(C2CCCCC2)C2CCCCC2)c1C(=O)c1ccc(Cl)cc1` [Example 36, {2-amino-4-[(dicyclohexylamino)methyl]-5-(pyridin-4-yl)thiophen-3-yl}(4-chlorophenyl)methanone]: 214 to 216 °C.

The molecule `COc1ccc(N(C)Cc2c(-c3ccccc3)sc(N)c2C(=O)c2ccc(Cl)cc2)cc1` [Example 16-12, {2-Amino-4-[((4-methoxyphenyl)(methyl)amino)methyl]-5-phenylthiophen-3-yl}(4-chlorophenyl)methanone] registered a melting point of 131.5 to 136 °C.
